Reference: ChEMBL document CHEMBL4411296, “Design and development of Isatin-triazole hydrazones as potential inhibitors of microtubule affinity-regulating kinase 4 for the therapeutic management of cell proliferation and metastasis” (Eur J Med Chem, 2019)

What was measured:
Format in all cases: functional
[1] = system: HOP-92; test: Growth inhibition of human HOP92 cells assessed as cell growth at 10 uM after 48 hrs by sulforhodamine B assay relative to control; conditions: HOP-92, 48 h, read-out: Activity
[2] = system: OVCAR-3; test: Growth inhibition of human OVCAR3 cells assessed as cell growth at 10 uM after 48 hrs by sulforhodamine B assay relative to control; conditions: OVCAR-3, 48 h, read-out: Activity
[3] = system: SK-OV-3; test: Growth inhibition of human SKOV3 cells assessed as cell growth at 10 uM after 48 hrs by sulforhodamine B assay relative to control; conditions: SK-OV-3, 48 h, read-out: Activity
[4] = system: Hs-578T; test: Growth inhibition of human Hs 578T cells assessed as cell growth at 10 uM after 48 hrs by sulforhodamine B assay relative to control; conditions: read-out: Activity
[5] = system: IGROV-1; test: Growth inhibition of human IGROV1 cells assessed as cell growth at 10 uM after 48 hrs by sulforhodamine B assay relative to control; conditions: IGROV-1, 48 h, read-out: Activity
[6] = system: HCT-116; test: Growth inhibition of human HCT116 cells assessed as cell growth at 10 uM after 48 hrs by sulforhodamine B assay relative to control; conditions: HCT-116, 48 h, read-out: Activity
[7] = system: SK-MEL-28; test: Growth inhibition of human SK-MEL-28 cells assessed as cell growth at 10 uM after 48 hrs by sulforhodamine B assay relative to control; conditions: SK-MEL-28, 48 h, read-out: Activity
[8] = system: DU-145; test: Growth inhibition of human DU145 cells assessed as cell growth at 10 uM after 48 hrs by sulforhodamine B assay relative to control; conditions: DU-145, 48 h, read-out: Activity
[9] = system: UACC-257; test: Growth inhibition of human UACC257 cells assessed as cell growth at 10 uM after 48 hrs by sulforhodamine B assay relative to control; conditions: UACC-257, 48 h, read-out: Activity
[10] = system: TK-10; test: Growth inhibition of human TK10 cells assessed as cell growth at 10 uM after 48 hrs by sulforhodamine B assay relative to control; conditions: TK-10, 48 h, read-out: Activity
[11] = system: MOLT-4; test: Growth inhibition of human MOLT4 cells assessed as cell growth at 10 uM after 48 hrs by sulforhodamine B assay relative to control; conditions: MOLT-4, 48 h, read-out: Activity
[12] = system: KM12; test: Growth inhibition of human KM12 cells assessed as cell growth at 10 uM after 48 hrs by sulforhodamine B assay relative to control; conditions: KM12, 48 h, read-out: Activity
[13] = system: UO-31; test: Growth inhibition of human UO31 cells assessed as cell growth at 10 uM after 48 hrs by sulforhodamine B assay relative to control; conditions: UO-31, 48 h, read-out: Activity
[14] = system: OVCAR-4; test: Growth inhibition of human OVCAR4 cells assessed as cell growth at 10 uM after 48 hrs by sulforhodamine B assay relative to control; conditions: OVCAR-4, 48 h, read-out: Activity
[15] = system: MDA-MB-468; test: Growth inhibition of human MDA-MB-468 cells assessed as cell growth at 10 uM after 48 hrs by sulforhodamine B assay relative to control; conditions: MDA-MB-468, 48 h, read-out: Activity
[16] = system: K562; test: Growth inhibition of human K562 cells assessed as cell growth at 10 uM after 48 hrs by sulforhodamine B assay relative to control; conditions: K562, 48 h, read-out: Activity
[17] = system: U-251; test: Growth inhibition of human U251 cells assessed as cell growth at 10 uM after 48 hrs by sulforhodamine B assay relative to control; conditions: U-251, 48 h, read-out: Activity
[18] = system: SF-539; test: Growth inhibition of human SF539 cells assessed as cell growth at 10 uM after 48 hrs by sulforhodamine B assay relative to control; conditions: SF-539, 48 h, read-out: Activity
[19] = system: SR; test: Growth inhibition of human SR cells assessed as cell growth at 10 uM after 48 hrs by sulforhodamine B assay relative to control; conditions: read-out: Activity
[20] = system: T47D; test: Growth inhibition of human T47D cells assessed as cell growth at 10 uM after 48 hrs by sulforhodamine B assay relative to control; conditions: read-out: Activity
[21] = system: SW-620; test: Growth inhibition of human SW620 cells assessed as cell growth at 10 uM after 48 hrs by sulforhodamine B assay relative to control; conditions: SW-620, 48 h, read-out: Activity
[22] = system: COLO 205; test: Growth inhibition of human COLO205 cells assessed as cell growth at 10 uM after 48 hrs by sulforhodamine B assay relative to control; conditions: COLO 205, 48 h, read-out: Activity
[23] = system: HCT-15; test: Growth inhibition of human HCT15 cells assessed as cell growth at 10 uM after 48 hrs by sulforhodamine B assay relative to control; conditions: HCT-15, 48 h, read-out: Activity
[24] = system: SK-MEL-5; test: Growth inhibition of human SK-MEL-5 cells assessed as cell growth at 10 uM after 48 hrs by sulforhodamine B assay relative to control; conditions: SK-MEL-5, 48 h, read-out: Activity
[25] = system: SN12C; test: Growth inhibition of human SN12C cells assessed as cell growth at 10 uM after 48 hrs by sulforhodamine B assay relative to control; conditions: read-out: Activity
[26] = system: MDA-MB-435; test: Growth inhibition of human MDA-MB-435 cells assessed as cell growth at 10 uM after 48 hrs by sulforhodamine B assay relative to control; conditions: MDA-MB-435, 48 h, read-out: Activity

| SMILES | growth at 10 µM [1] [%] | growth at 10 µM [2] [%] | growth at 10 µM [3] [%] | growth at 10 µM [4] [%] | growth at 10 µM [5] [%] | growth at 10 µM [6] [%] | growth at 10 µM [7] [%] | growth at 10 µM [8] [%] | growth at 10 µM [9] [%] | growth at 10 µM [10] [%] | growth at 10 µM [11] [%] | growth at 10 µM [12] [%] | growth at 10 µM [13] [%] | growth at 10 µM [14] [%] | growth at 10 µM [15] [%] | growth at 10 µM [16] [%] | growth at 10 µM [17] [%] | growth at 10 µM [18] [%] | growth at 10 µM [19] [%] | growth at 10 µM [20] [%] | other results |
| --- | --- | --- | --- | --- | --- | --- | --- | --- | --- | --- | --- | --- | --- | --- | --- | --- | --- | --- | --- | --- | --- |
| COc1ccc(Cn2cc(C(=O)N/N=C3/C(=O)Nc4c(F)cccc43)nn2)cc1 | 83.8 | 111 | 102 | 101 | 91.1 | 63.7 | 104 | 102 | 88.7 | 96 | 96.5 | 101 | 77 | 61.5 | 89.6 | 88 | 94.6 | 92.7 | 90.3 | 66.8 | growth at 10 µM [21]: 92.7%; growth at 10 µM [22]: 95%; growth at 10 µM [23]: 99.5%; growth at 10 µM [24]: 99.3%; growth at 10 µM [25]: 94.8%; growth at 10 µM [26]: 102% |
| COc1ccc(Cn2cc(C(=O)N/N=C3/C(=O)Nc4ccc(C)cc43)nn2)cc1 | 121 | 108 | 113 | 106 | 109 | 122 | 111 | 96 | 101 | 94.6 | 87.8 | 95.4 | 95 | 104 | 99.2 | 87.8 | 105 | 103 | 86 | 104 | growth at 10 µM [21]: 104%; growth at 10 µM [22]: 107%; growth at 10 µM [23]: 111%; growth at 10 µM [24]: 91.7%; growth at 10 µM [25]: 98.4%; growth at 10 µM [26]: 101% |
| COc1ccc(Cn2cc(C(=O)N/N=C3/C(=O)Nc4ccccc43)nn2)cc1 | 112 | 112 | 113 | 109 | 97.5 | 109 | 104 | 104 | 102 | 107 | 93.2 | 101 | 84.8 | 108 | 99 | 90.5 | 92.2 | 108 | 94.8 | 113 | growth at 10 µM [21]: 101%; growth at 10 µM [22]: 108%; growth at 10 µM [23]: 105%; growth at 10 µM [24]: 102%; growth at 10 µM [25]: 96.3%; growth at 10 µM [26]: 100% |
| COc1ccc(Cn2cc(C(=O)N/N=C3/C(=O)Nc4ccc(F)c(Cl)c43)nn2)cc1 | 129 | 105 | 116 | 112 | 110 | 109 | 115 | 96.6 | 100 | 101 | 96.8 | 101 | 92.4 | 104 | 108 | 90.8 | 103 | 111 | 99.5 | 110 | growth at 10 µM [21]: 106%; growth at 10 µM [22]: 115%; growth at 10 µM [23]: 113%; growth at 10 µM [24]: 99.9%; growth at 10 µM [25]: 103%; growth at 10 µM [26]: 99.3% |
| COc1ccc(Cn2cc(C(=O)N/N=C3/C(=O)Nc4ccc(Br)cc43)nn2)cc1 | 114 | 112 | 108 | 114 | 105 | 77 | 116 | 93.7 | 102 | 97.6 | 80.6 | 104 | 91.5 | 105 | 96.8 | 88.1 | 105 | 104 | 77.5 | 106 | growth at 10 µM [21]: 107%; growth at 10 µM [22]: 115%; growth at 10 µM [23]: 105%; growth at 10 µM [24]: 98.3%; growth at 10 µM [25]: 102%; growth at 10 µM [26]: 101% |
| COc1ccc(Cn2cc(C(=O)N/N=C3/C(=O)Nc4ccc(Cl)cc43)nn2)cc1 | 116 | 109 | 119 | 112 | 106 | 107 | 113 | 102 | 113 | 84.8 | 90.6 | 97.7 | 90.7 | 100 | 97.2 | 91.2 | 107 | 106 | 80.6 | 101 | growth at 10 µM [21]: 99.7%; growth at 10 µM [22]: 117%; growth at 10 µM [23]: 109%; growth at 10 µM [24]: 96.7%; growth at 10 µM [25]: 101%; growth at 10 µM [26]: 104% |
| COc1ccc(Cn2cc(C(=O)N/N=C3/C(=O)Nc4c(Cl)cccc43)nn2)cc1 | 105 | 113 | 113 | 97.5 | 103 | 91.6 | 115 | 105 | 92.9 | 106 | 84.8 | 107 | 93.5 | 104 | 98.6 | 89.2 | 102 | 108 | 80.3 | 100 | growth at 10 µM [21]: 99.7%; growth at 10 µM [22]: 114%; growth at 10 µM [23]: 107%; growth at 10 µM [24]: 101%; growth at 10 µM [25]: 95.8%; growth at 10 µM [26]: 101% |
| COc1ccc(Cn2cc(C(=O)N/N=C3/C(=O)Nc4ccc(F)cc43)nn2)cc1 | 98.8 | 112 | 98.9 | 111 | 101 | 108 | 116 | 103 | 91 | 102 | 107 | 95.8 | 93.2 | 101 | 87.8 | 97.2 | 99.9 | 107 | 102 | 85.9 | growth at 10 µM [21]: 103%; growth at 10 µM [22]: 111%; growth at 10 µM [23]: 103%; growth at 10 µM [24]: 103%; growth at 10 µM [25]: 94.6%; growth at 10 µM [26]: 103% |
